Patent publication US9029518B2, “Method of extracting kaempferol-based antioxidants from Solenostemma arghel” (priority 2012, dated 2015)

Key:
[1] = tested on: acetic acid-induced writhes in mice; assay: Acetic acid-induced writhes in mice (peripheral analgesic activity); assay type: in vivo
[2] = tested on: carrageenan-induced rat paw edema; assay: Carrageenan-induced rat paw edema (anti-inflammatory); assay type: in vivo
From the text: The total alcohol (ethanol) extract was given at doses of 0.25, 0.5 and 1 g/kg, respectively, and fractions were given in doses of 0.25 g/kg. […]

[3] = tested on: response of mice to hot plate thermal stimulation; assay: Hot plate test (central analgesic activity); assay type: in vivo; settings: for Latency (mean latency time until licking or jumping): time 0 min, hot plate 55° C.; for central analgesic activity compared with methamizol 0.05 g/kg: total ethanol extract 0.25, 0.5 and 1 g/kg, fractions 0.25 g/kg, C1 and C2 0.1 g/kg, I.P.
Procedure: The total alcoholic extract was given at doses of 0.25, 0.5 and 1.0 g/kg, respectively, fractions were given at doses of 0.25 g/kg, and compounds were given at doses of 0.1 g/kg. The effect of the alcoholic extract, fractions and isolated compounds are shown in FIGS. 3A, 3B and 3C, respectively, and given below in Table 3.
FIGS. 3A, 3B and 3C graphically illustrate the mean latency time (in seconds) until licking or jumping. This was recorded with mice being placed in a glass beaker, which was placed on a hot plate, which was maintained at 55° C. Measurements were taken 20, 60 and 90 minutes, respectively, after intraperitoneal injection of fractions (0.25 g/kg) and the isolated compounds (0.1 g/kg) from Solenostemma arghel, compared with the control group and methamizol.
This effect started after 20 min. and persisted for 90 min. after I.P. administration of the extracts.

[4] = DPPH free radical scavenging activity; assay type: biochemical
Procedure: The antipyretic activity was estimated using Brewer's yeast-induced hyperpyrexia in rats. Both water and total alcohol extracts were separately given orally at doses of 0.25, 0.5 and 1.0 g/kg, respectively. The antioxidant activity was evaluated using 2,2-diphenyl-1-picrylhydrazyl (DPPH) free radical scavenging activity. A 0.05 ml sample of the test compound was added to a methanol solution of DPPH (100 μM 2.95 ml) dissolved in methanol. The compound was added at different concentrations of 2, 4, 6, 8 and 10 mg/ml, respectively, as well as for water, and the total ethanol extracts and fractions. Concentrations of 1, 2, 3, 4 and 5 mg/ml were used for C1 and C2. Equal amounts of methanol were added to the control. Absorbance was recorded at 517 nm at regular intervals of 15 s for 5 min. Ascorbic acid (100 μM) was used as a standard.
The results are shown in Table 4 below, and in FIGS. 4A and 4B.
With regard to antioxidant activity (in vitro), all extracts were tested at concentrations of 2, 4, 6, 8 and 10 mg/ml.

Compound	% Protection of control ([1]; dose 0.1 g/kg oral) [%]	% inhibition of control ([2]; dose 0.1 g/kg oral, time 1 h) [%]	% inhibition of control ([2]; dose 0.1 g/kg oral, time 2 h) [%]	% inhibition of control ([2]; dose 0.1 g/kg oral, time 3 h) [%]	Latency (mean latency time until licking or jumping) ([3]; dose 0.1 g/kg I.P.) [s]	central analgesic activity compared with methamizol 0.05 g/kg [3]	Radical scavenging activity (%) ± S.D. ([4]; concentration 1 mg/ml) [%]	Radical scavenging activity (%) ± S.D. ([4]; concentration 2 mg/ml) [%]	Radical scavenging activity (%) ± S.D. ([4]; concentration 3 mg/ml) [%]	Radical scavenging activity (%) ± S.D. ([4]; concentration 4 mg/ml) [%]	Radical scavenging activity (%) ± S.D. ([4]; concentration 5 mg/ml) [%]	further results
O=c1c(O[C@@H]2O[C@H](CO)[C@@H](O)[C@H](O)[C@H]2O)c(-c2ccc(O[C@@H]3O[C@H](CO)[C@@H](O)[C@H](O)[C@H]3O)cc2)oc2cc(O)cc(O)c12 [C1, kaempferol-3, 4′-diglucoside]	59.02	59.06	71.31	53.93	5.50 ± 0.85	significantly (P<0.05) greater than that of methamizol	26.51 ± 1.01	37.94 ± 0.98	52.63 ± 0.99	67.72 ± 1.12	83.40	
C[C@H]1O[C@H](OC[C@H]2O[C@@H](Oc3c(-c4ccc(O)cc4)oc4cc(O)cc(O)c4c3=O)[C@H](O)[C@@H](O)[C@@H]2O)[C@@H](O)[C@@H](O)[C@@H]1O [C2, kaempferol-3-rutinoside]	68.90	62.50	70.02	53.60	5.80 ± 0.79	significantly (P<0.05) greater than that of methamizol	30.28 ± 1.10	39.64 ± 0.88	65.30 ± 0.98	70.12 ± 1.01	86.50	
O=C(O)Cc1ccccc1Nc1c(Cl)cccc1Cl [Diclofenac sodium, diclofenac sodium, reference compound]												% inhibition of control ([2]; dose 0.03 g/kg, time 0 h (so in the source)): 30.24%; % inhibition of control ([2]; dose 0.03 g/kg, time 2 h): 48.42%; % inhibition of control ([2]; dose 0.03 g/kg, time 3 h): 54.69%
Cc1c(N(C)CS(=O)(=O)[O-])c(=O)n(-c2ccccc2)n1C.[Na+] [Methamizol, methamizol, reference compound]												% Protection of control ([1]; dose 0.05 g/kg): 52.32%; Latency (mean latency time until licking or jumping) ([3]; dose 0.05 g/kg): 5.26 ± 0.94 s
O=C1O[C@H]([C@@H](O)CO)C(O)=C1O [ascorbic acid, reference compound]												scavenging activity towards DPPH radicals ([4]; concentration 100 μM (standard)): 87.8%
